Assay results as given in ChEMBL document CHEMBL1201862, “PubChem BioAssay data set” (2004).
Blank lines part the entries; values can stand above or below the compound they belong to. Activity calls are given as the source filed them.

Assays:
[1] = molecular target: T1, Heat shock factor protein 1 (Mus musculus, UniProt P38532); assay: inhibition of MG132-induced HSE-luciferase signal, confirmation, cell-based, NIH3T3, luminescence, dose retest (AID 2382); assay type: functional;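 also: NIH3T3 fibroblasts with HSF1-driven luciferase reporter stressed by proteasome inhibitor MG132; luminescence from HSF1-driven luciferase expression after 8 hours of MG132 stress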
T1 sequence (P38532 whole entry): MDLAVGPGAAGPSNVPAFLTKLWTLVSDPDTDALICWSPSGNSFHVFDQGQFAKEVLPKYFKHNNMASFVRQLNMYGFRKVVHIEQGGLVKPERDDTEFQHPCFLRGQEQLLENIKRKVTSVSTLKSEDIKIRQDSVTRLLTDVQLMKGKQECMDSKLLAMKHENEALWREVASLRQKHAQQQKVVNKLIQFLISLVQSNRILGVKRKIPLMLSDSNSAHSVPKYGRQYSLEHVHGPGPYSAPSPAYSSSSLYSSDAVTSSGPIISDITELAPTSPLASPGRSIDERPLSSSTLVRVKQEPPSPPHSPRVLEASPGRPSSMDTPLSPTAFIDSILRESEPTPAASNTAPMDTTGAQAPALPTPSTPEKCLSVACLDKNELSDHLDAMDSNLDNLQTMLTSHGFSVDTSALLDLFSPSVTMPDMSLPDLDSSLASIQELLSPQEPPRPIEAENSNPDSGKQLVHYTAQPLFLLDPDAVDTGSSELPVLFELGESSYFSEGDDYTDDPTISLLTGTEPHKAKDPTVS

[2] = molecular target: T2, Corticotropin-releasing factor receptor 2/Corticotropin-releasing factor-binding protein (Homo sapiens, UniProt P24387+Q13324); assay: Dose Response confirmation of uHTS hits for small molecule antagonists of the CRF-binding protein and CRF-R2 receptor complex.; assay type: functional; settings: read-out: IC50_Mean
T2 sequence (Q13324 whole entry): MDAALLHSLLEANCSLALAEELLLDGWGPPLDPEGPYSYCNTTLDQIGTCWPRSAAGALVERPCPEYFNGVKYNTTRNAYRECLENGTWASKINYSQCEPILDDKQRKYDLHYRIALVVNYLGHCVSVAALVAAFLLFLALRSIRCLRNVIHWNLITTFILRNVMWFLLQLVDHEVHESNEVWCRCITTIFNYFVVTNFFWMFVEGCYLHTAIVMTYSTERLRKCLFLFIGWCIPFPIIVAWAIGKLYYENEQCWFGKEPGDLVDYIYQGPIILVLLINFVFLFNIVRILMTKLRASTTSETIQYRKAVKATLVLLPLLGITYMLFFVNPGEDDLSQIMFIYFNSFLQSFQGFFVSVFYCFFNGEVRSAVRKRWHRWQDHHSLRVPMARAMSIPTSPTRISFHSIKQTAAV
T2 sequence (P24387 whole entry): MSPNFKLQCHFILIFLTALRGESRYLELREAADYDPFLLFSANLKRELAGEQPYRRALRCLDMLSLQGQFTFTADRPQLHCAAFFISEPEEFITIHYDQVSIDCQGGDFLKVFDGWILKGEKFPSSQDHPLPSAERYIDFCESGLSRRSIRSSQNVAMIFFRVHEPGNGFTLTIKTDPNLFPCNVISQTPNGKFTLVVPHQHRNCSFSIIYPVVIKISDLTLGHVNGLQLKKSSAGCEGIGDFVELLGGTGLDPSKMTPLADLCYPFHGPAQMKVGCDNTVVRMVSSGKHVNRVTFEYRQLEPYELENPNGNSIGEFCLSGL

[3] = molecular target: T2, Corticotropin-releasing factor receptor 2/Corticotropin-releasing factor-binding protein; assay: activators of CRF receptor 2 with binding protein – uHTS hits, confirmation (AID 602473); assay type: functional; settings: read-out: EC50_Mean
[4] = CRF-BP/CRF-R2 complex antagonists, dose response, cell-based, uHTS hits, 384-well (AID 651639); assay type: functional, Homo sapiens; settings: read-out: IC50_Mean
[5] = molecular target: Hepatocyte nuclear factor 4-alpha (Homo sapiens, UniProt P41235); assay type: functional, cell-based;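 also: biochemical luminescence-based dose-response counterscreen measuring inhibition of HNF4 dimerization, run alongside a screen for blockers of ABHD5–perilipin-5 interaction; split luciferase complementation of HNF4 fusion proteins in cell lysate measuring dimerization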
Hepatocyte nuclear factor 4-alpha, sequence (P41235 whole entry, the tested form may be a part): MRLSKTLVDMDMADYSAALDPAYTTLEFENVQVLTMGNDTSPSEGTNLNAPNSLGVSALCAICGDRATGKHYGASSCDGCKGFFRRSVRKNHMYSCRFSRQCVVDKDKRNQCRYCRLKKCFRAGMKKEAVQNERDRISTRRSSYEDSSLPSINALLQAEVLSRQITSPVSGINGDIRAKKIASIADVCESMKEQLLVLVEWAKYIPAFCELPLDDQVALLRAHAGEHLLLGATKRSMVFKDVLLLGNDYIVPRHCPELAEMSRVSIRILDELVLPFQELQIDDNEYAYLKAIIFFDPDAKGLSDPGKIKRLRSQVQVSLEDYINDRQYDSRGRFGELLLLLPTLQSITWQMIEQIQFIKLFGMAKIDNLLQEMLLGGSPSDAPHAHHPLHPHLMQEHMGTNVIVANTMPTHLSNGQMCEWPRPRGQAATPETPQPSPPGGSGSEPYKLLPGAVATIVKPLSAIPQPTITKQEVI

[6] = ARNT/TACC3 interaction disruptors, potency, confirmation, biochemical, AlphaScreen, cherry-picked samples (AID 651703); assay type: functional, Homo sapiens;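 also: His-tagged ARNT PAS-B domain paired with GST-TACC3 E629A dimer coactivator fragment; potency of inhibitors that break up the complex and lower AlphaScreen signal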
[7] = molecular target: T3, 1-phosphatidylinositol 4,5-bisphosphate phosphodiesterase gamma-1 (Homo sapiens, UniProt P19174); assay: Counterscreen for inhibitors of phospholipase C isozymes (PLC-B3): Fluorescence-based biochemical high throughput dose response assay to identify inhibitors of phospholipase C isozymes (PLC-gamma1).
T3 sequence (P19174 whole entry): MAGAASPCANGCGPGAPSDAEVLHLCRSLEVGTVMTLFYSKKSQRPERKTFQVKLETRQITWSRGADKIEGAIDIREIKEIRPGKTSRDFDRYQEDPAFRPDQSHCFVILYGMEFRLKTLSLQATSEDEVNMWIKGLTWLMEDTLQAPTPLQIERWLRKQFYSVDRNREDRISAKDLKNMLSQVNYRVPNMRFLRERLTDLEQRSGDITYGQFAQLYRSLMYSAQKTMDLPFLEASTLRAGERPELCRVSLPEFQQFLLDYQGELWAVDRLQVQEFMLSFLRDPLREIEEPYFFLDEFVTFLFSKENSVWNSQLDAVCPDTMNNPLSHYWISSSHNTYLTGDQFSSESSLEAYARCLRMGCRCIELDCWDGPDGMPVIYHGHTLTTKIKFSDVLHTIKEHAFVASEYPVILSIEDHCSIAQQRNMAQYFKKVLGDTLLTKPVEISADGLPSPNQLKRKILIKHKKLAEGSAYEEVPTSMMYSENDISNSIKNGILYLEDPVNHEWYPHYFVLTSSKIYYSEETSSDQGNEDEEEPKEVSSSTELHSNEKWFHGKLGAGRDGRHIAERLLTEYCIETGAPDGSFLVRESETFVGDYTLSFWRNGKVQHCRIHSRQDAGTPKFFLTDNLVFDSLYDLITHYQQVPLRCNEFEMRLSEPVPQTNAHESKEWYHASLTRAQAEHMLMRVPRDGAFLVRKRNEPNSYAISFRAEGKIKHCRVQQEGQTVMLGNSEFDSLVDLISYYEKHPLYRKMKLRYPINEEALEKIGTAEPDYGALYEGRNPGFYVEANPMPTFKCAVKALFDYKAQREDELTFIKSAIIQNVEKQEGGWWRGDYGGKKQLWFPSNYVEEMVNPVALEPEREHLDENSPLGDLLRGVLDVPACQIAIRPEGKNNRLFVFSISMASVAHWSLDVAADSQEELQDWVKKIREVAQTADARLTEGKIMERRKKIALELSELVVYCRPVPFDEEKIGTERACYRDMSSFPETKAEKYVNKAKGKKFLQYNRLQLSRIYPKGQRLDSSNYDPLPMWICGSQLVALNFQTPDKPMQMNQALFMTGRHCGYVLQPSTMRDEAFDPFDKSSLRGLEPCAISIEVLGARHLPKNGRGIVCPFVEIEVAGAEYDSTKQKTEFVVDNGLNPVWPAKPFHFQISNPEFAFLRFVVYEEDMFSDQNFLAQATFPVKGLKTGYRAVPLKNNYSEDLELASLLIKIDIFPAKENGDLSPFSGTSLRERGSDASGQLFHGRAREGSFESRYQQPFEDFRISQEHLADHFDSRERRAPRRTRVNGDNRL

[8] = molecular target: T4, 1-phosphatidylinositol 4,5-bisphosphate phosphodiesterase beta-3 (Homo sapiens, UniProt Q01970); assay: Fluorescence-based biochemical high throughput dose response assay to identify inhibitors of phospholipase C isozymes (PLC-B3).
T4 sequence (Q01970 whole entry): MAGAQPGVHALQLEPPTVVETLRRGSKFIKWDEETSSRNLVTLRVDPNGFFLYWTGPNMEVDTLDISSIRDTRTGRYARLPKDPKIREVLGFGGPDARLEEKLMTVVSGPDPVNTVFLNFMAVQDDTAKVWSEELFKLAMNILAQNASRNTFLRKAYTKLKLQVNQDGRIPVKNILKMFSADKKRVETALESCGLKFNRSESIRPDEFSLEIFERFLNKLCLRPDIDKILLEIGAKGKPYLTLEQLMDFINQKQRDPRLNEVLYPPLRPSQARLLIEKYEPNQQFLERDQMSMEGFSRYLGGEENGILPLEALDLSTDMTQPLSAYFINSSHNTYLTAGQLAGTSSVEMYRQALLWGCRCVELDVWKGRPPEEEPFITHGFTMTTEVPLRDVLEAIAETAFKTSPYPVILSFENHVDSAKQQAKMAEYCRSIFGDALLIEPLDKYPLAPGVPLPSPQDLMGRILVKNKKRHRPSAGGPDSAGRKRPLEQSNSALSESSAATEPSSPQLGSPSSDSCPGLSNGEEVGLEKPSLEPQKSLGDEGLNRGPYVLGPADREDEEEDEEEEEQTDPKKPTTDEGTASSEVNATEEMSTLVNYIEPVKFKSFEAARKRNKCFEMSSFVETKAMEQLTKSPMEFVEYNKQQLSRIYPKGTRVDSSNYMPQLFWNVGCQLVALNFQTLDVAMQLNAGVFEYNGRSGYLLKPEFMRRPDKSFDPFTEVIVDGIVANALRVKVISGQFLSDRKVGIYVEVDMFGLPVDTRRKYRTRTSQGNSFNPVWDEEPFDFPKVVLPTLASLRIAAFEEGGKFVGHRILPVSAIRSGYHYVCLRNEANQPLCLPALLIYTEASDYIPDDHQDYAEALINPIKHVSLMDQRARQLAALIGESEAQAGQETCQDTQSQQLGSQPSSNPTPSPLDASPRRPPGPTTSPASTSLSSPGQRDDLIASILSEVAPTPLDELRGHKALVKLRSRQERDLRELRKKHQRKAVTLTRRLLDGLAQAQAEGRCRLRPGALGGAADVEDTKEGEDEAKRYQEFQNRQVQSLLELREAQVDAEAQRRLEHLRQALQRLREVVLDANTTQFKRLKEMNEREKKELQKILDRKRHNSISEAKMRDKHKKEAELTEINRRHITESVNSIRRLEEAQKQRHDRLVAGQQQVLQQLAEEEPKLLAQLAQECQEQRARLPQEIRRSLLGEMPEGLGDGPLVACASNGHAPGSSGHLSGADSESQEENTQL

EC50 [1]: 70.4 µM (active)
IC50 [2]: < 0.368 µM (active)
EC50 [3]: > 53 µM (inactive)
IC50 [4]: 0.675 µM (active)
Structure (SMILES): COc1cccc2cc(-c3nnc(-c4ccccc4)o3)c(=O)oc12

IC50 [5]: 2.39 µM (active)
Structure (SMILES): N#Cc1ccc(C(C(=O)NC2CCCCC2)n2c(=O)c(-c3ccco3)nc3ccccc32)cc1 (stereo not drawn)

IC50 [7]: > 123 µM (inactive)
IC50 [8]: > 123 µM (inactive)
Structure (SMILES): CCOc1ccccc1Nc1nc(N)nc(CN(C)C2CCCCC2)n1
AC50 [6]: 80.6 µM (active)
